Legend:
oilseed rape = assay: Test C postemergence; assay type: in vivo, Brassica napus; details: for Oilseed Rape plant response rating / Plant response rating, Oilseed Rape: postemergence; for Oilseed Rape plant response rating: 62 g ai/ha, scale 0 to 100
How it was run: (§1)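 Visual control ratings on a 0–100 scale (100 = complete control) made against untreated controls after 13 to 15 days in greenhouse. Compounds applied in surfactant-containing solvent mixture, either preemergence to loam/sand-sown seeds or postemergence to 1- to 4-leaf plants (2–18 cm) in peat medium.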

crabgrass, large = assay: Test A preemergence; assay type: in vivo, Digitaria sanguinalis; details: preemergence
How it was run: (§2)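 Seeds were sown in a loam soil–sand blend and given a directed soil spray preemergence; postemergence plants at 2–10 cm, one- to two-leaf stage, were sprayed with compound in non-phytotoxic solvent with surfactant. After about 10 days in a greenhouse, injury was visually rated against untreated controls (0 = no effect, 100 = complete control).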

nutsedge, yellow = assay: Test C preemergence; assay type: in vivo, Cyperus esculentus; details: for Nutsedge, Yellow plant response rating / Plant response rating, Nutsedge, Yellow: preemergence; for Plant response rating, Nutsedge, Yellow: 125 g ai/ha, scale 0 to 100, 0 = no effect, 100 = complete control
How it was run: as §1

barnyardgrass = assay: Test C postemergence; assay type: in vivo, Echinochloa crus-galli; details: for Plant response rating (scale of 0 to 100 where 0 is no effect and 100 is complete control), Barnyardgrass: Postemergence, 31 g ai/ha, visually evaluated after 13 to 15 days; for Barnyardgrass plant response rating / Plant response rating, Barnyardgrass: postemergence; for Barnyardgrass plant response rating: 62 g ai/ha, scale 0 to 100
How it was run: as §1

wheat [1] = assay: Test A preemergence; assay type: in vivo, Triticum aestivum; details: preemergence
How it was run: as §2

soybean = assay: Test C postemergence; assay type: in vivo, Glycine max; details: for Plant response rating, Soybean / Soybean plant response rating: postemergence
How it was run: as §1

wheat [2] = assay: Test A postemergence; assay type: in vivo, Triticum aestivum
How it was run: as §2

waterhemp = assay: Test C preemergence; assay type: in vivo, Amaranthus rudis; details: for Waterhemp plant response rating / Plant response rating, Waterhemp: preemergence; for Plant response rating, Waterhemp: 125 g ai/ha, scale 0 to 100, 0 = no effect, 100 = complete control
How it was run: as §1

corn = assay: Test C preemergence; assay type: in vivo, Zea mays; details: for Corn plant response rating / Plant response rating, Corn: preemergence; for Plant response rating, Corn: 125 g ai/ha, scale 0 to 100, 0 = no effect, 100 = complete control
How it was run: as §1

blackgrass = assay: Test C postemergence; assay type: in vivo, Alopecurus myosuroides; details: for Plant response rating (scale of 0 to 100 where 0 is no effect and 100 is complete control), Blackgrass: Postemergence, 31 g ai/ha, visually evaluated after 13 to 15 days; for Blackgrass plant response rating / Plant response rating, Blackgrass: postemergence; for Blackgrass plant response rating: 62 g ai/ha, scale 0 to 100
How it was run: as §1

kochia = assay: Test C postemergence; assay type: in vivo, Kochia scoparia; details: for Plant response rating (scale of 0 to 100 where 0 is no effect and 100 is complete control), Kochia: Postemergence, 31 g ai/ha, visually evaluated after 13 to 15 days; for Kochia plant response rating / Plant response rating, Kochia: postemergence; for Kochia plant response rating: 62 g ai/ha, scale 0 to 100
How it was run: as §1

velvetleaf [3] = assay: Test C preemergence; assay type: in vivo, Abutilon theophrasti; details: for Velvetleaf plant response rating / Plant response rating, Velvetleaf: preemergence; for Plant response rating, Velvetleaf: 125 g ai/ha, scale 0 to 100, 0 = no effect, 100 = complete control
How it was run: as §1

lambsquarters = assay: Test C preemergence; assay type: in vivo, Chenopodium album; details: for Lambsquarters plant response rating / Plant response rating, Lambsquarters: preemergence; for Plant response rating, Lambsquarters: 125 g ai/ha, scale 0 to 100, 0 = no effect, 100 = complete control
How it was run: as §1

velvetleaf [4] = assay: Test C postemergence; assay type: in vivo, Abutilon theophrasti; details: for Plant response rating, Velvetleaf / Velvetleaf plant response rating: postemergence; for Velvetleaf plant response rating: scale 0 to 100
How it was run: as §1

[5] = 250 g ai/ha, scale 0 to 100 (0 no effect, 100 complete control)
[6] = 125 g ai/ha, scale 0 to 100, 0 no effect, 100 complete control
[7] = 125 g ai/ha, visual injury approx. 10 days after treatment
[8] = 500 g ai/ha, visual injury after approx. 10 days, 0 to 100 scale (0 no effect, 100 complete control)
[9] = 31 g ai/ha, visual rating, scale 0 to 100 (0 no effect, 100 complete control), 13 to 15 days
[10] = 62 g ai/ha, scale 0 to 100 (0 no effect, 100 complete control), 13 to 15 days
[11] = 250 g ai/ha, scale 0 to 100, 0 is no effect, 100 is complete control
[12] = Postemergence, 500 g ai/ha, 0 to 100 scale (0 no effect, 100 complete control)
[13] = Postemergence, 31 g ai/ha, visually evaluated after 13 to 15 days

CCCc1cc(C(=O)NC(C)C)nn1Cc1ccnc(C(F)(F)F)c1 [Compound 186]
0: Wheat plant response rating (wheat [2]; Postemergence, 125 g ai/ha, 0 to 100 scale, 0 no effect, 100 complete control)
5: Plant response rating (scale of 0 to 100 where 0 is no effect and 100 is complete control), Barnyardgrass (barnyardgrass) | Plant response rating (scale of 0 to 100 where 0 is no effect and 100 is complete control), Blackgrass (blackgrass)
55: Plant response rating, Barnyardgrass (barnyardgrass; [5]) | Corn plant response rating (corn; [9]) | Velvetleaf plant response rating (velvetleaf [4])
60: Oilseed Rape plant response rating (oilseed rape) | Nutsedge, Yellow plant response rating (nutsedge, yellow; [10]) | Plant response rating, Blackgrass (blackgrass; [5])
98: Nutsedge, Yellow plant response rating (nutsedge, yellow; [11]) | Corn plant response rating (corn; [11])
100: Crabgrass, Large plant response rating (0 to 100 scale) (crabgrass, large; [7]) | Crabgrass, Large plant response rating (crabgrass, large; [8]) | Wheat plant response rating (wheat [1]; [8]) | Waterhemp plant response rating (waterhemp; [9]) | Waterhemp plant response rating (waterhemp; [10]) | Plant response rating, Waterhemp (waterhemp; 13 to 15 days) | Waterhemp plant response rating (waterhemp; [11]) | Velvetleaf plant response rating (velvetleaf [3]; [9]) | Velvetleaf plant response rating (velvetleaf [3]; [10]) | Plant response rating, Velvetleaf (velvetleaf [3]; 13 to 15 days) | Velvetleaf plant response rating (velvetleaf [3]; [11]) | Lambsquarters plant response rating (lambsquarters; [9]) | Lambsquarters plant response rating (lambsquarters; [10]) | Plant response rating, Lambsquarters (lambsquarters; 13 to 15 days) | Lambsquarters plant response rating (lambsquarters; [11])
80: Plant response rating, Oilseed Rape (oilseed rape; [6]) | Plant response rating (scale of 0 to 100 where 0 is no effect and 100 is complete control), Kochia (kochia) | Plant response rating, Velvetleaf (velvetleaf [4]; [5])
95: Plant response rating, Soybean (soybean; [5]) | Soybean plant response rating (soybean; [6]) | Plant response rating, Corn (corn; 13 to 15 days) | Plant response rating, Kochia (kochia; [5])
90: Wheat plant response rating (0 to 100 scale) (wheat [1]; [7]) | Wheat plant response rating (wheat [2]; [12]) | Plant response rating, Kochia (kochia; [6])
10: Nutsedge, Yellow plant response rating (nutsedge, yellow; [9]) | Barnyardgrass plant response rating (barnyardgrass) | Plant response rating, Barnyardgrass (barnyardgrass; [6]) | Blackgrass plant response rating (blackgrass) | Plant response rating, Blackgrass (blackgrass; [6])
85: Plant response rating, Oilseed Rape (oilseed rape; [5]) | Plant response rating, Nutsedge, Yellow (nutsedge, yellow; 13 to 15 days) | Corn plant response rating (corn; [10]) | Kochia plant response rating (kochia)

CCCc1cc(C(=O)NCC(F)(F)F)nn1Cc1ccnc(OC(F)F)c1 [Compound 127]
50: Nutsedge, Yellow plant response rating (nutsedge, yellow; [10])
70: Oilseed Rape plant response rating (oilseed rape) | Plant response rating, Nutsedge, Yellow (nutsedge, yellow; 13 to 15 days) | Plant response rating, Soybean (soybean; [6]) | Plant response rating, Velvetleaf (velvetleaf [4]; [5])
90: Wheat plant response rating (wheat [2]; [12]) | Plant response rating, Kochia (kochia; [5]) | Plant response rating, Lambsquarters (lambsquarters; 13 to 15 days)
60: Plant response rating (scale of 0 to 100 where 0 is no effect and 100 is complete control), Kochia (kochia) | Velvetleaf plant response rating (velvetleaf [3]; [9]) | Velvetleaf plant response rating (velvetleaf [3]; [10])
10: Plant response rating, Barnyardgrass (barnyardgrass; [6]) | Plant response rating, Blackgrass (blackgrass; [6]) | Plant response rating (scale of 0 to 100 where 0 is no effect and 100 is complete control), Velvetleaf (velvetleaf [4]; [13])
45: Plant response rating (scale of 0 to 100), Corn (corn; Preemergence, 250 g ai/ha) | Plant response rating, Velvetleaf (velvetleaf [4]; [6])
85: Plant response rating, Oilseed Rape (oilseed rape; [5]) | Plant response rating (scale of 0 to 100), Nutsedge, Yellow (nutsedge, yellow; Preemergence, 250 g ai/ha) | Plant response rating, Soybean (soybean; [5])
40: Plant response rating (scale of 0 to 100 where 0 is no effect and 100 is complete control), Soybean (soybean; [13]) | Plant response rating, Blackgrass (blackgrass; [5])
25: Nutsedge, Yellow plant response rating (nutsedge, yellow; [9]) | Corn plant response rating (corn; [10])
65: Plant response rating (scale of 0 to 100 where 0 is no effect and 100 is complete control), Oilseed Rape (oilseed rape; [13]) | Soybean plant response rating (soybean; 62 g ai/ha, scale 0 to 100) | Plant response rating, Corn (corn; 13 to 15 days) | Kochia plant response rating (kochia) | Plant response rating, Kochia (kochia; [6])
15: Plant response rating, Barnyardgrass (barnyardgrass; [5]) | Blackgrass plant response rating (blackgrass) | Velvetleaf plant response rating (velvetleaf [4]; 62 g ai/ha)
20: Plant response rating (scale of 0 to 100 where 0 is no effect and 100 is complete control), Blackgrass (blackgrass)
100: Plant response rating (scale of 0 to 100), Waterhemp (waterhemp; Preemergence, 250 g ai/ha) | Waterhemp plant response rating (waterhemp; [9]) | Waterhemp plant response rating (waterhemp; [10]) | Plant response rating, Waterhemp (waterhemp; 13 to 15 days) | Plant response rating (scale of 0 to 100), Velvetleaf (velvetleaf [3]; Preemergence, 250 g ai/ha) | Plant response rating, Velvetleaf (velvetleaf [3]; 13 to 15 days) | Plant response rating (scale of 0 to 100), Lambsquarters (lambsquarters; Preemergence, 250 g ai/ha) | Lambsquarters plant response rating (lambsquarters; [9])
80: Plant response rating, Oilseed Rape (oilseed rape; [6]) | Wheat plant response rating (wheat [2]; postemergence, 125 g ai/ha, about 10 days, visual rating on 0 to 100 scale (0 no effect, 100 complete control)) | Lambsquarters plant response rating (lambsquarters; [10])
5: Plant response rating (scale of 0 to 100 where 0 is no effect and 100 is complete control), Barnyardgrass (barnyardgrass) | Barnyardgrass plant response rating (barnyardgrass) | Corn plant response rating (corn; [9])

Source: patent US20150105252A1, “SUBSTITUTED PYRAZOLES AS HERBICIDES” (E I DU PONT DE NEMOURS AND COMPANY, priority 2013, published 2015)
